Experimental data: patent publication US20250127918A1, “SITE-SELECTIVE CONJUGATION OF A PHARMACEUTICAL AGENT TO AN ANTIBODY USING AN AFFINITY PEPTIDE” (priority 2023, published 2025)

Assays:
Dupilumab (hIgG4) = assay: Small bioconjugation handle installation to other IgGs (Q-ToF LC-MS); format: biochemical, human; settings: 20 equivalents, room temperature
Method: Reactions were performed on a 10 μL scale using 0.2 mL PCR tubes (FIG. 64). First, the electrophile-attached Z33 peptide reagent was dissolved in water to prepare a 2 mg/mL solution. IgG (human WN1 (prepared as previously described (ChemBioChem, 19, 2039-2044 (2018)), denosumab (Invitrogen), dupilumab (Invitrogen), or mouse IgG1 (Invitrogen, subtype controlled)), electrophile-attached Z33 peptide reagent (2 mg/mL), HEPES buffer (pH 8.5), and NaCl solution were added to achieve final concentrations of 5 μM, 100 μM, 100 mM, and 200 mM. The contents were mixed using a 5 μL pipette and incubated at room temperature in the dark for 24 hours. The resulting reaction solution was quenched with a 100 mM Tris buffer and analyzed by LC-MS (FIGS. 53A to 53D, Table 10). Sample preparation for LC-MS analysis was performed in the same manner as previously described.
Reactions were performed on a 10 μL scale using 0.2 mL PCR tubes. First, the electrophile-attached Z33 peptide reagent was dissolved in water to prepare a 2 mg/mL solution. Denosumab (Invitrogen), dupilumab (Invitrogen), or mouse IgG1 (Invitrogen, subtype controlled)), electrophile-attached Z33 peptide reagent (2 mg/mL), HEPES buffer (pH 8.5), and NaCl solution were added to achieve final concentrations of 5 μM, 100 μM, 100 mM, and 200 mM. […] The resulting reaction solution was quenched with a 100 mM Tris buffer and analyzed by LC-MS. […]

mouse IgG = assay: Azido transfer to mouse IgG in vivo (E1/E2 ELISA of serum); settings: subcutaneous injection of 30 mg/kg, WT Swiss mice, serum at 24 h, listed as N3-2-I
Method: To evaluate the in vivo azido transfer in mice, two groups of mice were injected subcutaneously or intraperitoneally with the IgG-binder peptides. Mice were sacrificed at 24 hours post-injection, and the blood was collected for ELISA analysis. Sandwich ELISA assays. […] The percentage azido transfer was also compared with intraperitoneal injection of 10 mg/kg Z33-E20Hcy, intraperitoneal injection of 30 mg/kg of Z33-E20Hcy, subcutaneous injection of 30 mg/kg Z33-E20Hcy, and intraperitoneal injection of 30 mg/kg pegylated-Z33-E20Hcy (FIG. 2D).
Two sandwich ELISA assays have been developed in-house, one for the detection of the azido moiety conjugated mouse IgG (mIgG, E1), the other one for the detection of the whole mIgGs (modified and unmodified) in the sample (E2). Both E1 and E2 were run simultaneously on a same plate, using the same initial stock sample, and were processed in parallel at the same time for every steps. […] Absorbances were measured at 450 nm and 540 nm (A0=A450 nm-A540 nm) using a Spark microplate reader (Tecan, USA). The background noise (Ablank) from the serum was subtracted to get the final absorbance of the sample (Asample=A0-Ablank). The ratio Asample (E1)/Asample (E2) was calculated to estimate the percentage of azido transfer on the total amount of IgG in the sample. […]

## FNMQQQRRFYEALHD PNLNHcyEQRNAKIKSI RDD [PEL-21]
Dupilumab (hIgG4); HEPES pH 8.5, first column so headed
  Light chain total conversion: 13%
Dupilumab (hIgG4); HEPES pH 8.5, second column so headed
  Light chain total conversion: 96%
Mouse IgG
  Azido transfer to mouse IgG in vivo (conversion rate): 33±12%
